Holding throughout (assay type): in vivo
The subject of assay [1] is Boll Weevil (Anthonomus grandis). Briefly: B.3 Boll Weevil (Anthonomus grandis), microtiter plate insect diet. The settings on record: 120 h, 800 ppm, sprayed onto insect diet, 5 days, in comparison with untreated controls, read-out: mortality (egg and larval). Here is the method: B.3 Boll Weevil (Anthonomus grandis)
For evaluating control of boll weevil (Anthonomus grandis) the test unit consisted of 96-well-microtiter plates containing an insect diet and 5-10 A. grandis eggs.
(§1) The compounds were formulated using a solution containing 75% v/v water and 25% v/v DMSO. Different concentrations of formulated compounds were sprayed onto the insect diet at 5 μl, using a custom built micro atomizer, at two replications.
After application, microtiter plates were incubated at about 25±1° C. and about 75±5% relative humidity for 5 days. Egg and larval mortality was then visually assessed.

Assay [2] has as its system Tobacco Budworm (Heliothis virescens). Briefly: B.7 Tobacco Budworm (Heliothis virescens) I, microtiter plate insect diet. The settings on record: 120 h, 800 ppm, sprayed onto insect diet, 5 days, in comparison with untreated controls, read-out: mortality (egg and larval). The procedure:
B.7 Tobacco Budworm (Heliothis virescens) I
For evaluating control of tobacco budworm (Heliothis virescens) the test unit consisted of 96-well-microtiter plates containing an insect diet and 15-25 H. virescens eggs. The compounds were formulated using a solution containing 75% v/v water and 25% v/v DMSO. Different concentrations of formulated compounds were sprayed onto the insect diet at 10 μl, using a custom built micro atomizer, at two replications.
(§2) After application, microtiter plates were incubated at about 28±1° C. and about 80±5% relative humidity for 5 days. Egg and larval mortality was then visually assessed.

Assay [3] deals with Mediterranean Fruitfly (Ceratitis capitata). Briefly: B.6 Mediterranean Fruitfly (Ceratitis capitata), microtiter plate insect diet. The settings on record: 120 h, 800 ppm, sprayed onto insect diet, 5 days, in comparison with untreated controls, read-out: mortality (egg and larval). The procedure: B.6 Mediterranean Fruitfly (Ceratitis capitata)
For evaluating control of Mediterranean fruitfly (Ceratitis capitata) the test unit consisted of microtiter plates containing an insect diet and 50-80 C. capitata eggs.
as §1, §2

Assay [4] has as its system Diamond Back Moth (Plutella xylostella). Put plainly: B.1 Diamond Back Moth (Plutella xylostella), cabbage leaf dip. The settings on record: foliar, 500 ppm, 3rd instar larvae on dipped cabbage leaves, 72 hours after treatment, in comparison with untreated controls, read-out: mortality. The procedure:
B.1 Diamond Back Moth (Plutella xylostella)
The active compound was dissolved at the desired concentration in a mixture of 1:1 (vol:vol) distilled water:aceteone. Surfactant (Kinetic HV) was added at a rate of 0.01% (vol/vol). The test solution was prepared at the day of use.
Leaves of cabbage were dipped in test solution and air-dried. Treated leaves were placed in petri dishes lined with moist filter paper and inoculated with ten 3rd instar larvae. Mortality was recorded 72 hours after treatment. Feeding damages were also recorded using a scale of 0-100%.

This note sets out measurements from US9497970B2, “Pesticide compounds” (priority 2013, dated 2016).

What is called mortality is the percentage killed. For the compound `FC(F)(F)Oc1ccc(-n2cnc3c4ccc(/C=N/NC(=S)Nc5c(Cl)cc(Cl)cc5Cl)cc4ccc32)cc1` [C-3, 1-(2,4,6-trichlorophenyl)-3-[(E)-[3-[4-(trifluoromethoxy)phenyl]benzo[e]benzimidazol-7-yl]methyleneamino] thiourea], the mortality at 800 ppm in assay [1], in assay [2] and in assay [3] was at least 75% throughout. Moreover, the mortality at 500 ppm in assay [4] is at least 75%.
Take `Cc1cccc(C)c1NC(=S)N/N=C/c1ccc2c(c1)CCc1c-2nnn1-c1ccc(OC(F)(F)F)cc1` [C-11, 1-(2,6-dimethylphenyl)-3-[(E)-[3-[4-(trifluoromethoxy)phenyl]-4,5-dihydrobenzo[e]benzotriazol-7-yl]methyleneamino]thiourea]: the mortality at 800 ppm in assay [2] and in assay [3] was at least 75% throughout.
For the compound `COc1ccccc1NC(=S)N/N=C/c1ccc2c(ccc3c2ncn3-c2ccc(OC(F)(F)F)cc2)c1` [C-26, 3-(2-methoxyphenyl)-1-[[3-[4-(trifluoromethoxy)phenyl]-9aH-benzo[e]benzimidazol-7-ylidene]methylimino] isothiourea], the mortality at 800 ppm in assay [1], in assay [2] and in assay [3] was at least 75% in each case. For the same compound, the mortality at 500 ppm in assay [4] was at least 75%.
Consider `FC(F)(F)Oc1ccc(-n2cnc3c4ccc(/C=N/NC(=S)Nc5ccc(Cl)cc5Cl)cc4ccc32)cc1` [C-27, 1-(2,4-dichlorophenyl)-3-[(E)-[3-[4-(trifluoromethoxy)phenyl]benzo[e]benzimidazol-7-yl]methyleneamino]thiourea], for which the mortality at 800 ppm in assay [1] and in assay [3] was at least 75% throughout. In assay [4], the mortality at 500 ppm was at least 75%.
On to `Cc1cccc(NC(=S)N/N=C/c2ccc3c(ccc4c3ncn4-c3ccc(OC(F)(F)F)cc3)c2)c1C` [C-28, 1-(2,3-dimethylphenyl)-3-[(E)-[3-[4-(trifluoromethoxy)phenyl]benzo[e]benzimidazol-7-yl]methyleneamino] thiourea], for which the mortality at 800 ppm in assay [1], in assay [2] and in assay [3] was at least 75% in each case.
Regarding `CCc1ccccc1NC(=S)N/N=C/c1ccc2c(c1)CCc1c-2nnn1-c1ccc(OC(F)(F)F)cc1` [C-32, 1-(2-ethylphenyl)-3-[[3-[4-(trifluoromethoxy)phenyl]-5,6-dihydro-4H-benzo[e]benzotriazol-7-ylidene]methylimino]thiourea], in assay [1], the mortality at 800 ppm is at least 75%.
For `Cc1cc(Br)cc(C)c1NC(=S)N/N=C/c1ccc2c(c1)CCc1c-2nnn1-c1ccc(OC(F)(F)F)cc1` [C-33, 1-(4-bromo-2,6-dimethyl-phenyl)-3-[(E)-[3-[4-(trifluoromethoxy)phenyl]-4,5-dihydrobenzo[e]benzotriazol-7-yl]methyleneamino]thiourea], the mortality at 800 ppm in assay [1] and in assay [2] was at least 75% throughout.
In the case of `Cc1c(Cl)cccc1NC(=S)N/N=C/c1ccc2c(ccc3c2ncn3-c2ccc(OC(F)(F)F)cc2)c1` [C-39, 1-(3-chloro-2-methyl-phenyl)-3-[(E)-[3-[4-(trifluoromethoxy)phenyl]benzo[e]benzimidazol-7-yl]methyleneamino] thiourea], the mortality at 800 ppm in assay [1], in assay [2] and in assay [3] was at least 75% in each case.
Turning to `Fc1ccccc1NC(=S)N/N=C/c1ccc2c(ccc3c2ncn3-c2ccc(OC(F)(F)F)cc2)c1` [C-40, 3-(2-fluorophenyl)-1-[[3-[4-(trifluoromethoxy)phenyl]-5H-benzo[e]benzimidazol-7-ylidene]methylimino] isothiourea], the mortality at 800 ppm in assay [1] and in assay [3] was at least 75% throughout. The mortality at 500 ppm in assay [4] is at least 75%.
In the case of `FC(F)(F)Oc1ccc(-n2cnc3c4ccc(/C=N/NC(=S)Nc5cc(Cl)ccc5Cl)cc4ccc32)cc1` [C-42, 1-(2,5-dichlorophenyl)-3-[(E)-[3-[4-(trifluoromethoxy)phenyl]benzo[e]benzimidazol-7-yl]methyleneamino] thiourea], the mortality at 800 ppm in assay [1] was at least 75%.
Regarding `FC(F)(F)Oc1ccc(-n2ncc3c4ccc(/C=N/NC(=S)Nc5c(Cl)cccc5Cl)cc4ccc32)cc1` [C-49, 1-(2,6-dichlorophenyl)-3-[(E)-[3-[4-(trifluoromethoxy)phenyl]benzo[e]indazol-7-yl]methyleneamino]thiourea], the mortality at 800 ppm in assay [1] and in assay [2] was at least 75% each time.
As for `Cc1cccc(C)c1NC(=S)N/N=C/c1ccc2c(ccc3c2nnn3-c2ccc(OC(F)(F)F)cc2)c1` [C-54, 1-(2,6-dimethylphenyl)-3-[(E)-[3-[4-(trifluoromethoxy)phenyl]benzo[e]benzotriazol-7-yl]methyleneamino] thiourea], in assay [2], the mortality at 800 ppm is at least 75%.
Regarding `C/C(=N\NC(=S)Nc1c(Cl)cccc1Cl)c1ccc2c(ccc3c2ncn3-c2ccc(OC(F)(F)F)cc2)c1` [C-59], the mortality at 800 ppm in assay [1], in assay [2] and in assay [3] was at least 75% in each case.
For the compound `CCc1cccc(CC)c1NC(=S)N/N=C/c1ccc2c(ccc3c2nnn3-c2ccc(OC(F)(F)F)cc2)c1` [C-61, 1-(2,6-diethylphenyl)-3-[(E)-[3-[4-(trifluoromethoxy)phenyl]benzo[e]benzotriazol-7-yl]methyleneamino] thiourea], the mortality at 800 ppm in assay [1] and in assay [2] was at least 75% throughout.
As for `CCc1cccc(C)c1NC(=S)N/N=C/c1ccc2c(ccc3c2nnn3-c2ccc(OC(F)(F)F)cc2)c1` [C-62, 1-(2-ethyl-6-methyl-phenyl)-3-[(E)-[3-[4-(trifluoromethoxy)phenyl]benzo[e]benzotriazol-7-yl]methyleneamino] thiourea], the mortality at 800 ppm in assay [2] was at least 75%.
With `Cc1cccnc1NC(=S)N/N=C/c1ccc2c(ccc3c2ncn3-c2ccc(OC(F)(F)F)cc2)c1` [C-63, 1-(3-methyl-2-pyridyl)-3-[(E)-[3-[4-(trifluoromethoxy)phenyl]benzo[e]benzimidazol-7-yl]methyleneamino] thiourea], the mortality at 800 ppm in assay [1], in assay [2] and in assay [3] was at least 75% throughout.
For `FC(F)(F)Oc1ccc(-n2cnc3c4ccc(/C=N/NC(=S)Nc5ccccc5I)cc4ccc32)cc1` [C-64, 1-(2-iodophenyl)-3-[[3-[4-(trifluoromethoxy)phenyl]-5H-benzo[e]benzimidazol-7-ylidene]methylimino] thiourea], the mortality at 800 ppm in assay [1], in assay [2] and in assay [3] was at least 75% in each case.
For the compound `FC(F)(F)Oc1ccc(-n2cnc3c4ccc(/C=N/NC(=S)Nc5cccnc5)cc4ccc32)cc1` [C-73, 1-(3-pyridyl)-3-[(E)-[3-[4-(trifluoromethoxy)phenyl]benzo[e]benzimidazol-7-yl]methyleneamino] thiourea], the mortality at 800 ppm in assay [1] was at least 75%.
Regarding `O=C(N/N=C/c1ccc2c(ccc3c2ncn3-c2ccc(OC(F)(F)F)cc2)c1)Nc1ccccc1` [C-89, 1-phenyl-3-[(E)-[3-[4-(trifluoromethoxy)phenyl]benzo[e]benzimidazol-7-yl]methyleneamino]urea], the mortality at 800 ppm in assay [1] and in assay [2] was at least 75% each time. In assay [4], the mortality at 500 ppm is at least 75%.
With `CN1N=C2c3ccc(/C=N/NC(=S)Nc4c(Cl)cccc4Cl)cc3CCC2C1c1ccc(OC(F)(F)F)cc1` (stereo not drawn) [C-95, 1-(2,6-dichlorophenyl)-3-[(E)-[2-methyl-3-[4-(trifluoromethoxy)phenyl]-3,3a,4,5-tetrahydrobenzo[g]indazol-7-yl]methyleneamino]thiourea], the mortality at 800 ppm in assay [1] and in assay [2] was at least 75% each time. The mortality at 500 ppm in assay [4] was at least 75%.
On to `Cn1nc2c(ccc3cc(/C=N/NC(=S)Nc4ncccc4I)ccc32)c1-c1ccc(OC(F)(F)F)cc1` [C-102, 1-(3-iodo-2-pyridyl)-3-[(E)-[2-methyl-3-[4-(trifluoromethoxy)phenyl]benzo[g]indazol-7-yl]methyleneamino]thiourea], for which the mortality at 800 ppm in assay [1] was at least 75%.
Consider `O=C(/N=C1\SCC(=O)N1c1ccccc1C(F)(F)F)Nc1ccc2c(ccc3c2ncn3-c2ccc(OC(F)(F)F)cc2)c1` [C-116, (1Z)-1-[4-oxo-3-[2-(trifluoromethyl)phenyl]thiazolidin-2-ylidene]-3-[3-[4-(trifluoromethoxy)phenyl]-8H-benzo[e]benzimidazol-7-ylidene]urea], for which the mortality at 800 ppm in assay [1] and in assay [2] was at least 75% each time.
